From patent US20170253607A1, “LONG-ACTING HIV PROTEASE INHIBITOR” (Shionogi & Co., Ltd., priority 2014, published 2017)
pIC50: −log10 of the molar value.

Columns and labels:
[1] = Evaluation of total body clearance (CLtot), intravenous administration; assay type: in vivo, Sprague-Dawley (SD); details: rat (SD), intravenous administration 0.5-10 mg/kg; CLtot = dose/AUC
Summary of the method: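 Plasma levels quantified by LC/MS/MS after intravenous tail-vein dosing (0.5-10 mg/kg, compound-dependent; n=2-3). AUC from pharmacokinetic analysis; total clearance calculated as dose/AUC.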

[2] = Protein binding test (equilibrium dialysis, unbound ratio fu in serum); assay type: in vitro ADME; details: rat serum, equilibrium dialysis 24 hours, 37° C., 2 μg/mL
Method: Assay condition: Evaluation method; Equilibrium dialysis method, Reaction time; 24 hours, Reaction temperature; 37° C., Assay concentration; 2 μg/mL A solution of the compound was added to each serum and mixed to prepare the serum samples with above concentration. The serum sample was put into one side of an equilibrium dialysis apparatus with dialysis membrane and phosphate buffered saline (PBS) was also put to another side of the apparatus. The apparatus was incubated at 37° C. for 24 hours. After incubation, the serum and PBS samples were collected and the compound concentrations in both samples were measured by LC/MS/MS. Fu was calculated by dividing the concentration in PBS by the concentration in the serum.

[3] = biological target: HIV-1 PR (Human immunodeficiency virus type 1 group M subtype B, UniProt P04585); assay: HIV-protease inhibitory activity assay (FRET peptide substrate); assay type: biochemical; details: Test Example 1
Summary of the method: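 Inhibition of HIV-1 protease was measured as loss of fluorescence dequenching of a HiLyte Fluor 488/QXL 520 peptide at 2 μmol/L, pH 4.8, room temperature, 60 minute reaction. IC50 was derived by nonlinear four-parameter fitting.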

COc1ccc(S(=O)(=O)N(CC2CCCC2)CC(O)C(Cc2ccc(OCc3ccccc3-n3nc4c(c3C(=O)O)CC(C(F)(F)F)CC4)cc2)NC(=O)OC2COC3(C)OCCC23)cc1 (stereo not drawn) [Compound I-140]
rat_CLt [1]: 0.111 mL/min/kg | rat_fu [2]: <0.1% | pIC50 [3]: 8.85

COc1ccc(S(=O)(=O)N(CC2CCCC2)CC(O)C(Cc2ccc(OCc3ccccc3-n3nc4c(c3C(=O)O)CC(C(C)(C)C)CC4)cc2)NC(=O)OC2COC3(C)OCCC23)cc1 (stereo not drawn) [Compound I-145]
rat_CLt [1]: 1.29 mL/min/kg | rat_fu [2]: <0.1% | pIC50 [3]: 9.09

COc1ccc(S(=O)(=O)N(CC2CCCC2)CC(O)C(Cc2ccc(OCc3ccccc3-n3nc4c(c3C(=O)O)CC3(CCCC3)CC4)cc2)NC(=O)OC2COC3(C)OCCC23)cc1 (stereo not drawn) [Compound I-146]
rat_CLt [1]: 0.584 mL/min/kg | rat_fu [2]: <0.1% | pIC50 [3]: 9.04

CC1(C)CCc2sc(-c3ccccc3COc3ccc(CC(NC(=O)OC4COC5(C)OCCC45)C(O)CN(CC(F)F)S(=O)(=O)c4ccc5ncsc5c4)cc3)c(C(=O)O)c2C1 (stereo not drawn) [Compound I-147]
rat_CLt [1]: 1.68 mL/min/kg | rat_fu [2]: <0.1% | pIC50 [3]: 9.00

COc1ccc(S(=O)(=O)N(CC2CCC(=O)N2)CC(O)C(Cc2ccc(OCc3ccccc3-c3sc4c(c3C(=O)O)CC(C)(C)CC4)cc2)NC(=O)OC2COC3(C)OCCC23)cc1 (stereo not drawn) [Compound I-148]
rat_CLt [1]: 2.5 mL/min/kg | rat_fu [2]: <0.1% | pIC50 [3]: 8.94

CC1(C)CCc2sc(-c3ccc(OCCN(CC(O)C(Cc4ccccc4)NC(=O)OC4COC5(C)OCCC45)S(=O)(=O)c4ccc5ncsc5c4)cc3)c(C(=O)O)c2C1 (stereo not drawn) [Compound I-165]
rat_CLt [1]: 1.08 mL/min/kg | rat_fu [2]: <0.1% | pIC50 [3]: 8.49

Cc1cc(OCCN(CC(O)C(Cc2ccccc2)NC(=O)OC2COC3(C)OCCC23)S(=O)(=O)c2ccc3ncsc3c2)ccc1-c1sc2c(c1C(=O)O)CC(C)(C)CC2 (stereo not drawn) [Compound I-166]
rat_CLt [1]: 0.194 mL/min/kg | rat_fu [2]: <0.1% | pIC50 [3]: 8.05

CC(C)CN(CC(O)C(Cc1ccc(OCCNC(=O)c2cc(Cl)cc(Cl)c2O)cc1)NC(=O)OC1COC2(C)OCCC12)S(=O)(=O)c1ccc2c(c1)OCO2 (stereo not drawn) [Compound I-168]
rat_CLt [1]: 5.68 mL/min/kg | rat_fu [2]: <0.1% | pIC50 [3]: 8.74

CC(C)CN(CC(O)C(Cc1ccc(OCc2ccccc2-c2ccc3c(c2)C(=O)C(c2ccc(F)cc2)C3=O)cc1)NC(=O)OC1COC2(C)OCCC12)S(=O)(=O)c1ccc2ncsc2c1 (stereo not drawn) [Compound I-175]
rat_CLt [1]: 4.44 mL/min/kg | rat_fu [2]: <0.1% | pIC50 [3]: 8.70

COc1ccc(S(=O)(=O)N(CC(C)C)CC(O)C(Cc2ccc(OCc3ncc(F)cc3-c3sc4c(c3C(=O)O)CC(C)(C)CC4)cc2)NC(=O)OC2COC3(C)OCCC23)cc1 (stereo not drawn) [Compound I-182]
rat_CLt [1]: 3.84 mL/min/kg | rat_fu [2]: <0.1% | pIC50 [3]: 8.84

COc1ccc(S(=O)(=O)N(CC(C)C)CC(O)C(Cc2ccc(OCc3nccnc3-c3ccc(-c4sc5c(c4C(=O)O)CC(C)(C)CC5)cc3)cc2)NC(=O)OC2COC3(C)OCCC23)cc1 (stereo not drawn) [Compound I-195]
rat_CLt [1]: 6.74 mL/min/kg | rat_fu [2]: <0.1% | pIC50 [3]: 8.67

COc1ccc(S(=O)(=O)N(CC(C)C)CC(O)C(Cc2ccc(OCc3ccccc3-c3ncc4c(c3C(=O)O)CCC(C)(C)C4)cc2)NC(=O)OC2COC3(C)OCCC23)cc1 (stereo not drawn) [Compound I-197]
rat_CLt [1]: 3.81 mL/min/kg | rat_fu [2]: <0.1% | pIC50 [3]: 8.71

COc1ccc(S(=O)(=O)N(CC2CCCC2)CC(O)C(Cc2ccc(OCc3cc(C(F)(F)F)ccc3-c3nc4n(c3C(=O)O)CCCC4)cc2)NC(=O)OC2COC3(C)OCCC23)cc1 (stereo not drawn) [Compound I-205]
rat_CLt [1]: 1.68 mL/min/kg | rat_fu [2]: <0.1% | pIC50 [3]: 8.69

COc1ccc(S(=O)(=O)N(CC(C)C)CC(O)C(Cc2ccc(OCc3cc(N(C)C)ccc3-c3sc4c(c3C(=O)O)CC(C)(C)CC4)cc2)NC(=O)OC2COC3(C)OCCC23)cc1 (stereo not drawn) [Compound I-206]
rat_CLt [1]: 0.162 mL/min/kg | rat_fu [2]: <0.1% | pIC50 [3]: 8.47

COc1ccc(S(=O)(=O)N(CC(C)C)C[C@@H](O)[C@H](Cc2ccc(NC3CN(c4ccccc4-c4sc5c(c4C(=O)O)CC(C)(C)CC5)C3)cc2)NC(=O)O[C@H]2CO[C@@]3(C)OCC[C@@H]23)cc1 [Compound I-228]
rat_CLt [1]: 0.144 mL/min/kg | rat_fu [2]: <0.1% | pIC50 [3]: 8.40

COc1ccc(S(=O)(=O)N(CC(C)C)CC(O)C(Cc2ccc(NCC3=C(c4sc5c(c4C(=O)O)CC(C)(C)CC5)CCCC3)cc2)NC(=O)OC2COC3(C)OCCC23)cc1 (stereo not drawn) [Compound I-231]
rat_CLt [1]: 1.02 mL/min/kg | rat_fu [2]: <0.1% | pIC50 [3]: 8.41

COc1ccc(S(=O)(=O)N(CC(C)C)CC(O)C(Cc2ccc(N3CCC(Oc4ccccc4-c4sc5c(c4C(=O)O)CC(C)(C)CC5)C3)cc2)NC(=O)OC2COC3(C)OCCC23)cc1 (stereo not drawn) [Compound I-234]
rat_CLt [1]: 1.49 mL/min/kg | rat_fu [2]: <0.1% | pIC50 [3]: 8.46

COc1ccc(S(=O)(=O)N(CC(C)C)CC(O)C(Cc2ccc(N3CCC(Oc4ccccc4-c4sc5c(c4C(=O)O)CC(C)(C)CC5)C3)cc2)NC(=O)OC2COC3(C)OCCC23)cc1 (stereo not drawn) [Compound I-235]
rat_CLt [1]: 4.05 mL/min/kg | rat_fu [2]: <0.1% | pIC50 [3]: 8.45

COc1ccc(S(=O)(=O)N(CC(C)C)CC(O)C(Cc2ccc(N(C)CC3=C(c4sc5c(c4C(=O)O)CC(C)(C)CC5)CCCC3)cc2)NC(=O)OC2COC3(C)OCCC23)cc1 (stereo not drawn) [Compound I-236]
rat_CLt [1]: 0.763 mL/min/kg | rat_fu [2]: <0.1% | pIC50 [3]: 8.54

COc1ccc(S(=O)(=O)N(CC(C)C)CC(O)C(Cc2ccc(NC3CCN(c4ccccc4-c4sc5c(c4C(=O)O)CC(C)(C)CC5)C3)cc2)NC(=O)OC2COC3(C)OCCC23)cc1 (stereo not drawn) [Compound I-238]
rat_CLt [1]: 3.05 mL/min/kg | rat_fu [2]: <0.1% | pIC50 [3]: 8.60

COc1ccc(S(=O)(=O)N(CC(C)C)CC(O)C(Cc2ccc(N(C)CCCc3ccccc3-c3sc4c(c3C(=O)O)CC(C)(C)CC4)cc2)NC(=O)OC2COC3(C)OCCC23)cc1 (stereo not drawn) [Compound I-240]
rat_CLt [1]: 4.5 mL/min/kg | rat_fu [2]: <0.1% | pIC50 [3]: 8.69

COc1ccc(S(=O)(=O)N(CC(C)C)CC(O)C(Cc2ccc(NC3Cc4cccc(-c5sc6c(c5C(=O)O)CC(C)(C)CC6)c4C3)cc2)NC(=O)OC2COC3(C)OCCC23)cc1 (stereo not drawn) [Compound I-241]
rat_CLt [1]: 0.404 mL/min/kg | rat_fu [2]: <0.1% | pIC50 [3]: 8.53

COc1ccc(S(=O)(=O)N(CC(C)C)CC(O)C(Cc2ccc(NC3Cc4cccc(-c5sc6c(c5C(=O)O)CC(C)(C)CC6)c4C3)cc2)NC(=O)OC2COC3(C)OCCC23)cc1 (stereo not drawn) [Compound I-242]
rat_CLt [1]: 0.408 mL/min/kg | rat_fu [2]: <0.1% | pIC50 [3]: 8.51

COc1ccc(S(=O)(=O)N(CC(C)C)CC(O)C(Cc2ccc(OCC3=C(c4sc5c(c4C(=O)O)CC(C)(C)CC5)CCCC3)cc2)NC(=O)OC2COC3(C)OCCC23)cc1 (stereo not drawn) [Compound I-243]
rat_CLt [1]: 0.477 mL/min/kg | rat_fu [2]: <0.1% | pIC50 [3]: 8.37

COc1ccc(S(=O)(=O)N(CC(C)C)C[C@@H](O)[C@H](Cc2ccc(NC[C@H]3CCCC[C@H]3c3sc4c(c3C(=O)O)CC(C)(C)CC4)cc2)NC(=O)O[C@H]2CO[C@@]3(C)OCC[C@@H]23)cc1 [Compound I-247]
rat_CLt [1]: 0.148 mL/min/kg | rat_fu [2]: <0.1% | pIC50 [3]: 8.65

COc1ccc(S(=O)(=O)N(CC2CCCC2)CC(O)C(Cc2ccc(OCc3nc(C)sc3-c3sc4c(c3C(=O)O)CC(C)(C)CC4)cc2)NC(=O)OC2COC3(C)OCCC23)cc1 (stereo not drawn) [Compound I-248]
rat_CLt [1]: 2.47 mL/min/kg | rat_fu [2]: <0.1% | pIC50 [3]: 8.65

COc1ccc(S(=O)(=O)N(CC(C)C)CC(O)C(Cc2ccc(NCc3ccc(-c4sc5c(c4C(=O)O)CC(C)(C)CC5)cc3)cc2)NC(=O)OC2COC3(C)OCCC23)cc1 (stereo not drawn) [Compound I-253]
rat_CLt [1]: 4.65 mL/min/kg | rat_fu [2]: <0.1% | pIC50 [3]: 8.59

COc1ccc(S(=O)(=O)N(CC(C)C)CC(O)C(Cc2ccc(NCc3cc(C#N)ccc3-c3sc4c(c3C(=O)O)CC(C)(C)CC4)cc2)NC(=O)OC2COC3(C)OCCC23)cc1 (stereo not drawn) [Compound I-256]
rat_CLt [1]: 3.83 mL/min/kg | rat_fu [2]: <0.1% | pIC50 [3]: 8.55

COc1ccc(S(=O)(=O)N(CC(C)C)CC(O)C(Cc2ccc(NCCCc3ccccc3-c3sc4c(c3C(=O)O)CC(C)(C)CC4)cc2)NC(=O)OC2COC3(C)OCCC23)cc1 (stereo not drawn) [Compound I-260]
rat_CLt [1]: 0.801 mL/min/kg | rat_fu [2]: <0.1% | pIC50 [3]: 8.53

COc1ccc(S(=O)(=O)N(CC(C)C)CC(O)C(Cc2ccc(N(C)CCc3ccccc3-c3sc4c(c3C(=O)O)CC(C)(C)CC4)cc2)NC(=O)OC2COC3(C)OCCC23)cc1 (stereo not drawn) [Compound I-261]
rat_CLt [1]: 2.78 mL/min/kg | rat_fu [2]: <0.1% | pIC50 [3]: 8.45

COc1ccc(S(=O)(=O)N(CC(C)C)CC(O)C(Cc2ccc(NCCc3ccccc3-c3sc4c(c3C(=O)O)CC(C)(C)CC4)cc2)NC(=O)OC2COC3(C)OCCC23)cc1 (stereo not drawn) [Compound I-262]
rat_CLt [1]: 0.343 mL/min/kg | rat_fu [2]: <0.1% | pIC50 [3]: 8.40
